Measured values from patent US20210047192A1, “DELAYED RELEASE FORMULATION OF NITRIFICATION INHIBITORS” (BASF SE, priority 2018, published 2021).

Key:
[1] = tested on: sandy soil; assay: Nitrogen retention in field trials (NH4-nitrogen content of soil); assay type: in vivo; settings: incorporation depth 0 cm
Protocol: An area of sandy soil, previously untreated with fertilizer or other agricultural products near the field station Limburgerh of, was treated as follows. Drainage pipes of 20 cm in length and 12 cm diameter were inserted 10 cm deep into the soil. A treatment as indicated in a line of Table 10 was added on top of the soil under which a pipe was buried. At the beginning of the experiment and after three weeks, the pipes were dug out of the soil with its content, the content emptied into a bag and frozen on site. The soil was then analyzed for NH4-nitrogen content in the laboratory according to the following method: Samples were defrosted for 24 h, then sieved through a 5-6 mm mesh sieve. 200 g of the thus homogenized samples were put into 1 L plastic bottles and 600 mL of a […] solution (1% (w/w) K2SO4 in water) were added. The samples were then shaken for 2 h end over end. The solution was filtered to remove the soil and 50 mL of the filtrate retained for analysis in a Continuous Flow Analyzer for NH4-nitrogen content.

[2] = Volatility measurement at 35° C. (weight loss of beakers in oil bath); assay type: physicochemical; settings: relative to the initial weight, after 23 hours at 35° C.
Protocol: Five beakers B1-B5 were prepared containing samples as specified in Table 2
(§1) All 5 beakers were mounted in an oil bath such that half of the beakers were immersed. The temperature of the oil bath was set to 35° C. During the heating process, the beakers were periodically taken out of the oil bath, dried, and weighted. The total mass of the beaker with samples was noted and compared to the initial weight of the beakers with samples. The weight loss attributed to Compound A was calculated from the total weight loss of the sample by taking the loading of the respective sample with Compound A into account. A comparison of the weight loss of Compound A, and the whole sample weight loss in the all 5 beakers after 23 hours at 35° C. was shown in the Table 3.

[3] = Volatility measurement at 60° C. (weight loss after 32 hours); assay type: physicochemical; settings: relative to the initial weight, after 32 hours at 60° C.
Protocol: as §1
Five beakers B1-B5 were prepared and treated as described in Example-1 with the differences that the oil bath was set to 60° C. and that the weight loss was recorded after 32 hours.

[4] = Volatility measurement at 100° C.; assay type: physicochemical; settings: relative to the initial weight, after hours at 100° C.
Protocol: as §1
Five beakers B1-B5 were prepared and treated as described in Example-1 with the differences that the oil bath was set to 100° C. and that the weight loss was recorded after […].

[5] = Volatility measurement at 60° C. with different loading for 24 or 72 hours (beakers B11-B15); assay type: physicochemical; settings: relative to the initial weight
Protocol: Five beakers B11-B15 were prepared containing samples as specified in Table 8.
All 5 beakers B11-B15 were mounted in an oil bath such that half of the beakers were immersed. The temperature of the oil bath was set to 60′C. During the heating process, the beakers were periodically taken out of the oil bath, dried, and weighted. The total mass of the beaker with samples was noted and compared to the initial weight of the beakers with samples. The weight loss attributed to Compound A was calculated from the total weight loss of the sample by taking the loading of the respective sample with Compound A into account. A comparison of the weight loss of Compound A, and the whole sample weight loss in the all 5 beakers after 24 and 72 hours at 60° C. was shown in the Table 9.

Total sample weight loss [2] [%] | Weight loss of Compound A [2] [%] | Total sample weight loss [3] [%] | Weight loss of Compound A [3] [%] | Total sample weight loss [4] [%] | Weight loss of Compound A [4] [%] | Total sample weight loss after 24 hours ([5]; 24 hours) [%] | Weight loss of Compound A after 24 hours ([5]; 24 hours) [%] | Total sample weight loss after 72 hours ([5]; 72 hours) [%] | Weight loss of Compound A after 72 hours ([5]; 72 hours) [%] | Structure (SMILES) | NH4-nitrogen ([1]; 3 weeks after application) [kg/ha] | NH4-nitrogen ([1]; at time of application) [kg/ha]
 |  |  |  |  |  |  |  |  |  | N.N.O=S(=O)(O)O [Ammonium Sulfate] | 8 | 75
4.22 | 4.22 | 37.97 | 37.97 | 68.82 | 68.82 | 9.02 | 9.02 | 26.99 | 26.99 | C#CCOCc1ccc(Cl)cc1 [Compound A, 1-chloro-4-(prop-2-ynoxymethyl)benzene] |  | 
